Measured values from patent US7902249B2, “Indole derivatives substituted with long-chain alcohols and medicaments containing them” (Meiji Dairies Corporation, priority 2002, dated 2011).
Entries after “also recorded” stand apart in the source; their conditions may differ.

Experiments:
[1] = tested on: Human neuroblastoma cells, Lan-1; assay: Induction of proliferation, differentiation and apoptosis of neuroblastoma cells; format: cell-based; design: key to Apoptosis / Proliferation / Differentiation: ++++: Extremely strongly stimulated (reinforced).; +++: Very strongly stimulated (reinforced).; ++: Strongly stimulated (reinforced).; +: Stimulated (reinforced).; +/−: No change.; −: Decreased (weakened); conditions: for effects on induction of differentiation or apoptosis versus proliferation: Lan-1 cells, summary of Table 1
From the text: Human neuroblastoma cells, Lan-1 (Lan-1: a human neuroblastoma cell line with M1 and M2 muscarinic receptors conjugated with intracellular Ca^2+) were used to investigate the effects of the present compounds on the induction of proliferation, differentiation and apoptosis.

[2] = tested on: Fetal rat neurons in primary cultures; assay: Effect on neurite outgrowth and neuron survival; format: cell-based; conditions: 10^−6 and 10^−7 M, incubation for 3 days, versus control group (FIG. 1)
Method: This experiment was conducted in accordance with the method of Luu, et al. (C. Girlanda-Junges, F. Keyling-Bilger, G. Schemitt & B. Luu, “Effect of Cyclohexenonic Long Chain Fatty Alcohols on Neurite Outgrowth. Study on Structure-Activity Relationship”, Tetrahedron, 54, 7735-77481998)). Fetal rat neurons in primary cultures were treated with Compound 1 at the concentrations of 10^−6 and 10^−7 M, followed by incubation for 3 days.

human blood cells = assay: Preventive effect on hemolysis in human blood cells induced by free radicals; format: cell-based; conditions: compared with control group (FIG. 2)
Method: An experiment was conducted in accordance with the method of D. Blache. FASEB J. et al. (E. Bourdon, N. Loreau & D. Blache. FABES J. “Glucose and free radicals impair the antioxidant properties of serum albumin”, 13, 233-244(1999)). The time required for 50% hemolysis (HT50) was measured and the extension of the time required for HT50 compared with that of a control group was plotted on a graph. In this experiment, Vitamin E was employed as a positive control.

Compound | Apoptosis ([1]; Day 1, 0.1 μM) | Differentiation ([1]; Day 1, 0.1 μM) | Proliferation ([1]; Day 1, 0.1 μM) | Apoptosis ([1]; Day 1, 10 μM) | Differentiation ([1]; Day 1, 10 μM) | Proliferation ([1]; Day 1, 10 μM) | Apoptosis ([1]; Day 1, 100 μM) | Differentiation ([1]; Day 1, 100 μM) | Proliferation ([1]; Day 1, 100 μM) | Apoptosis ([1]; Day 2, 0.1 μM) | Differentiation ([1]; Day 2, 0.1 μM) | Proliferation ([1]; Day 2, 0.1 μM) | Apoptosis ([1]; Day 2, 10 μM) | Differentiation ([1]; Day 2, 10 μM) | Proliferation ([1]; Day 2, 10 μM) | Apoptosis ([1]; Day 2, 100 μM) | Differentiation ([1]; Day 2, 100 μM) | Proliferation ([1]; Day 2, 100 μM) | Apoptosis ([1]; Day 5, 0.1 μM) | Differentiation ([1]; Day 5, 0.1 μM) | other results
OCCCCCCCCCCc1c[nH]c2ccccc12 [Compound 3, 3-(10-hydroxydecyl)indole] | − | + | + | − | +++ | +/− | ++ | + | − | − | + | + | + | ++ | +/− | ++ | + | +/− | +/− | − | Proliferation ([1]; Day 5, 0.1 μM): +; Apoptosis ([1]; Day 5, 10 μM): +; Differentiation ([1]; Day 5, 10 μM): ++; Proliferation ([1]; Day 5, 10 μM): +/−; Apoptosis ([1]; Day 5, 100 μM): ++; Differentiation ([1]; Day 5, 100 μM): +++; Proliferation ([1]; Day 5, 100 μM): +/−; Apoptosis ([1]; Day 7, 0.1 μM): +/−; Differentiation ([1]; Day 7, 0.1 μM): +/−; Proliferation ([1]; Day 7, 0.1 μM): ++; Apoptosis ([1]; Day 7, 10 μM): +; Differentiation ([1]; Day 7, 10 μM): +++; Proliferation ([1]; Day 7, 10 μM): +/−; Apoptosis ([1]; Day 7, 100 μM): ++++; effects on induction of differentiation or apoptosis versus proliferation [1]: stronger effects on induction of differentiation or apoptosis of neuroblastoma cells rather than on proliferation
OCCCCCCCCCCCCCCCCc1c[nH]c2ccccc12 [Compound 1, 3-(16-hydroxyhexadecyl)indole] | − | +/− | + | +/− | ++ | + | + | +++ | +/− | − | +/− | ++ | +/− | +++ | + | + | ++++ | − | − | +/− | proportion of the neurons with neurites of 50 μm or longer [2]: higher in the treated group than in the control group; extension of the time required for 50% hemolysis (HT50) (human blood cells): extended HT50; Proliferation ([1]; Day 5, 0.1 μM): +/−; Apoptosis ([1]; Day 5, 10 μM): ++; Differentiation ([1]; Day 5, 10 μM): +++; Proliferation ([1]; Day 5, 10 μM): +/−; Apoptosis ([1]; Day 5, 100 μM): +++; Differentiation ([1]; Day 5, 100 μM): +; Proliferation ([1]; Day 5, 100 μM): −; Apoptosis ([1]; Day 7, 0.1 μM): +/−; Differentiation ([1]; Day 7, 0.1 μM): +; Proliferation ([1]; Day 7, 0.1 μM): +/−; Apoptosis ([1]; Day 7, 10 μM): ++; Differentiation ([1]; Day 7, 10 μM): ++++; Proliferation ([1]; Day 7, 10 μM): +/−; Apoptosis ([1]; Day 7, 100 μM): +++; Differentiation ([1]; Day 7, 100 μM): ++; Proliferation ([1]; Day 7, 100 μM): −; effects on induction of differentiation or apoptosis versus proliferation [1]: stronger effects on induction of differentiation or apoptosis of neuroblastoma cells rather than on proliferation; melting point: 79 to 80 °C
OCCCCCCCCCCCc1c[nH]c2ccccc12 [Compound 4, 3-(11-hydroxyundecyl)indole] | − | − | ++ | − | ++ | + | +++ | + | +/− | − | + | + | + | ++ | +/− | +++ | − | − | − | +/− | extension of the time required for 50% hemolysis (HT50) (human blood cells): extended HT50; also recorded: strong effect; Proliferation ([1]; Day 5, 0.1 μM): +/−; Apoptosis ([1]; Day 5, 10 μM): −; Differentiation ([1]; Day 5, 10 μM): ++; Proliferation ([1]; Day 5, 10 μM): +/−; Apoptosis ([1]; Day 5, 100 μM): +; Differentiation ([1]; Day 5, 100 μM): ++++; Proliferation ([1]; Day 5, 100 μM): +; Apoptosis ([1]; Day 7, 0.1 μM): −; Differentiation ([1]; Day 7, 0.1 μM): +/−; Proliferation ([1]; Day 7, 0.1 μM): ++; Apoptosis ([1]; Day 7, 10 μM): +/−; Differentiation ([1]; Day 7, 10 μM): ++; Proliferation ([1]; Day 7, 10 μM): +/−; Apoptosis ([1]; Day 7, 100 μM): ++++; effects on induction of differentiation or apoptosis versus proliferation [1]: stronger effects on induction of differentiation or apoptosis of neuroblastoma cells rather than on proliferation
OCCc1c[nH]c2ccccc12 [Compound 2, 3-(2-hydroxyethyl)indole] |  |  |  |  |  |  |  |  |  |  |  |  |  |  |  |  |  |  |  |  | extension of the time required for 50% hemolysis (HT50) (human blood cells): extended HT50
